Data set [1] relates to DNA. As to the kind of experiment: Pt-DNA adduct levels in tissues of OVCAR-3-bearing nude mice (competitive ELISA). It counts as in vivo. Particulars: carboplatin 60 mg kg-1 alone or plus one dose of amifostine. As for the experimental part:
(§1) British Joumal of Cancer (1997) 75(10), 1439-1446 ? […] The present study was carried out in well-established human ovarian cancer xenografts OVCAR-3, A2780 and FMa grown subcutaneously in the nude mouse. […] Its anti-tumour activity is assumed to result from the formation of platinum (Pt)-DNA adducts. The clinical use of carboplatin is limited by myelosuppression at a dose in the steep part of the dose-response curve. Therefore, much effort has been put into reducing the toxic side-effects to allow the administration of higher doses of carboplatin. Amifostine [Ethyol, WR-2721, S-2-(3-aminopropylamino)- ethylphosphorothioic acid], initially developed as a radioprotector, is approved for use as a protector against chemotherapy-induced toxicities in the USA and Europe (van der Vijgh and Peters, 1994). […] Such an approach is incorporated into clinical trials in which amifostine is given three times, just before and 2 and 4 h after carboplatin (Betticher et al, 1995; Vermorken et al, 1995). To date, clinical data are available for only a small number of patients. The Amifostine H2N - (CH2)3 - NH - (CH2)2 - S - P03H2 41 alkaline phosphatase WR-1 065 H2N - (CH2)3 - NH - (CH2)2 - S - H 4, oxidation Disulphides H2N - (CH2)3 - NH - (CH2)2 - S - S - R Figure 1 Structural formulas of amifostine, its active metabolite WR-1 065 and the disulphides [with WR-1 065 itself or with endogenous thiols (RSH)] […] However, the influence of multiple doses of amifostine on the anti-tumour activity of carboplatin was not studied. In the present experiments we investigated the influence of multiple doses of amifostine on the efficacy of carboplatin in tumour-bearing nude mice. We also investigated the influence of one and three doses of amifostine on the pharmacokinetics of carboplatin and the formation of Pt-DNA adducts in order to inter- pret the efficacy of carboplatin in the presence of amifostine. Furthermore, we determined the influence of a single dose and multiple doses of amifostine on the body temperature in nude mice.

Data set [2] concerns human ovarian cancer xenograft FMa. As to the kind of experiment: Anti-tumour activity in s.c. FMa xenografts in nude mice. It counts as in vivo. Particulars: for Anti-tumour activity (in words): carboplatin at the MTD of 60 mg kg-1, amifostine given three times; for Growth inhibition (%) (Day): weekly x 2. As for the experimental part:
as §1

Data set [3] is described as follows: Body temperature (intrarectal) in non-tumour-bearing nude mice. It counts as in vivo. Conditions: carboplatin 60 mg kg-1 alone; in the 24 h following injection. As for the experimental part: British Joumal of Cancer (1997) 75(10), 1439-1446 ? […] The present study was carried out in well-established human ovarian cancer xenografts OVCAR-3, A2780 and FMa grown subcutaneously in the nude mouse. […] Its anti-tumour activity is assumed to result from the formation of platinum (Pt)-DNA adducts. The clinical use of carboplatin is limited by myelosuppression at a dose in the steep part of the dose-response curve. Therefore, much effort has been put into reducing the toxic side-effects to allow the administration of higher doses of carboplatin. Amifostine [Ethyol, WR-2721, S-2-(3-aminopropylamino)- ethylphosphorothioic acid], initially developed as a radioprotector, is approved for use as a protector against chemotherapy-induced toxicities in the USA and Europe (van der Vijgh and Peters, 1994). […] Such an approach is incorporated into clinical trials in which amifostine is given three times, just before and 2 and 4 h after carboplatin (Betticher et al, 1995; Vermorken et al, 1995). To date, clinical data are available for only a small number of patients. […] Furthermore, we determined the influence of a single dose and multiple doses of amifostine on the body temperature in nude mice.

Data set [4] in a line: Pharmacokinetics of total platinum in OVCAR-3-bearing nude mice (flameless AAS). Particulars: 0.5-24 h, carboplatin 60 mg kg-1 i.v. alone or + single dose amifostine 200 mg kg-1 i.p. It counts as in vivo. The procedure: as §1
Details of data set [5]: method as in Treskes et al, 1994. Conditions: given on days 0 and 7; allowing 10% weight loss within 2 weeks after the first injection; ref Treskes et al, 1994; cited from earlier work.
Data set [6] is described as follows: Toxicity (weight loss, toxic deaths) in xenograft-bearing nude mice. It counts as in vivo, female athymic nude mice. Conditions: weekly x 2. The procedure: as §1
For data set [7], the system named is human ovarian cancer xenograft OVCAR-3. As to the kind of experiment: Anti-tumour activity in s.c. OVCAR-3 xenografts in nude mice. Particulars: for Growth inhibition (%) (Day): weekly x 2; for Anti-tumour activity (in words): OVCAR-3, carboplatin at the MTD of 60 mg kg-1, amifostine given three times. It counts as in vivo. The procedure: as §1
Data set [8] deals with human ovarian cancer xenograft A2780. Description: Anti-tumour activity in s.c. A2780 xenografts in nude mice. Format: in vivo. Particulars: for Growth inhibition (%) (Day): Table 1, carboplatin 60 mg kg-1 i.v. and/or amifostine 3 x 200 mg kg-1 i.p., weekly x 2; for Anti-tumour activity (in words): A2780, carboplatin at the MTD of 60 mg kg-1, amifostine given three times. The procedure:
as §1

Where [9] appears, read: day 29, Table 1, carboplatin 60 mg kg-1 i.v. and/or amifostine 3 x 200 mg kg-1 i.p.
The mark [10] stands for this setting: day 36, Table 1, carboplatin 60 mg kg-1 i.v. and/or amifostine 3 x 200 mg kg-1 i.p.
Where [11] appears, read: A2780-bearing mice, Table 1, carboplatin 60 mg kg-1 i.v. and/or amifostine 3 x 200 mg kg-1 i.p.
The mark [12] stands for this setting: FMa-bearing mice, Table 1, carboplatin 60 mg kg-1 i.v. and/or amifostine 3 x 200 mg kg-1 i.p.
Where [13] appears, read: OVCAR-3-bearing mice, Table 1, carboplatin 60 mg kg-1 i.v. and/or amifostine 3 x 200 mg kg-1 i.p.
Where [14] appears, read: OVCAR-3, day 28, Table 1, carboplatin 60 mg kg-1 i.v. and/or amifostine 3 x 200 mg kg-1 i.p.
Where [15] appears, read: OVCAR-3, day 35, Table 1, carboplatin 60 mg kg-1 i.v. and/or amifostine 3 x 200 mg kg-1 i.p.

The source of these data is PMC2223489, “Influence of single and multiple doses of amifostine on the efficacy and the pharmacokinetics of carboplatin in mice” (British Journal of Cancer, 1997).

In the case of `N.N.O=C([O-])C1(C(=O)[O-])CCC1.[Pt+2]` [carboplatin, cis-diammine( 1,1 -cyclobutanedicarboxylato)plat- inum(II)], the “Ratio AUC Pt-DNA adducts/AUC total platinum, kidney” value in data set [1] is on record as 0.51. In data set [1], the “Ratio AUC Pt-DNA adducts/AUC total platinum, liver” value worked out at 0.23. Besides, the “Ratio AUC Pt-DNA adducts/AUC total platinum, tumour tissue” value in data set [1] amounted to 0.56. Also, the “Anti-tumour activity (in words)” value is given as “active” in data set [2], “active” in data set [7] and “no significant influence” in data set [8]. For the same compound, the “Growth inhibition (%) (Day)” value in data set [2] (day 21, Table 2, carboplatin 60 mg kg-1 i.v. alone or + amifostine 1 x 200 mg kg-1 i.p.) was found to be 79.2%; in data set [2] (day 28, Table 2, carboplatin 60 mg kg-1 i.v. alone or + amifostine 1 x 200 mg kg-1 i.p.) it was 76.0%; in data set [2] (setting [9]) it was 90.3%; in data set [2] (setting [10]), 89.3%; in data set [7] (OVCAR-3, day 20, Table 2, carboplatin 60 mg kg-1 i.v. alone or + amifostine 1 x 200 mg kg-1 i.p.), 88.5%; in data set [7] (OVCAR-3, day 27, Table 2, carboplatin 60 mg kg-1 i.v. alone or + amifostine 1 x 200 mg kg-1 i.p.) it was 92.4%. Also, the “Growth inhibition (%) (Day)” value was found to be 93.2% in data set [7] (setting [14]); 89.0% in data set [7] (setting [15]); 28.8% in data set [8] (A2780, day 11); 14.0% in data set [8] (A2780, day 14). For the same compound, the “Body temperature (not decreased)” value in data set [3] was 37 0C. Besides, the “AUC of total platinum in OVCAR-3 tumour tissue” value in data set [4] was 146.8 nmol g(-1) x h. Moreover, the “AUC of total platinum in kidney” value in data set [4] is recorded as 368.3 nmol g(-1) x h. Further, the “AUC of total platinum in liver” value in data set [4] was 236.4 nmol g(-1) x h. The “AUC of total platinum in plasma ultrafiltrate” value in data set [4] is 18.2 microM x h. Also, the “Maximum tolerated dose (MTD) of carboplatin” value in data set [5] was 60 mg kg-'. The Toxic deaths is 0/5 in data set [6] (setting [11]); 0/6 in data set [6] (setting [12]); 0/6 in data set [6] (FMa-bearing mice, Table 2, carboplatin 60 mg kg-1 i.v. alone or + amifostine 1 x 200 mg kg-1 i.p.); 0/5 in data set [6] (setting [13]); 0/6 in data set [6] (OVCAR-3-bearing mice, Table 2, carboplatin 60 mg kg-1 i.v. alone or + amifostine 1 x 200 mg kg-1 i.p.).

For the compound `NCCCNCCSP(=O)(O)O` [amifostine, S-2-(3-aminopropylamino)-ethylphosphorothioic acid], the “Anti-tumour activity (in words)” value in data set [2], in data set [7] and in data set [8] was “did not have any anti-tumour activity” throughout. Besides, the “Growth inhibition (%) (Day)” value came to 20.3% in data set [2] (setting [9]); 21.5% in data set [2] (setting [10]); 0.0% in data set [7] (setting [14]); 0.0% in data set [7] (setting [15]); 31.1% in data set [8] (A2780, day 11); 17.4% in data set [8] (A2780, day 14). Moreover, the values for the Toxic deaths in data set [6] (setting [11]), in data set [6] (setting [12]) and in data set [6] (setting [13]) were 2/6, 0/6 and 1/6, respectively.
